Like-named read-outs stand apart in the source and are kept apart here.

For one test, the target named is EGFR del19/T790M/C797S (Homo sapiens, UniProt P00533, C797S/DEL746-750/T790M). Put plainly: Biochemical EGFR kinase assay (Lance Ultra TR-FRET), triple mutant del19/T790M/C797S. A digest of the protocol:
(§1)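 Enzyme reactions lasted 1 hour at room temperature with test compounds between 0.003 and 10 μM, followed by 10 mM EDTA quench.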

A further test concerns the target EGFR del19/C797S (Homo sapiens, UniProt P00533, C797S/DEL746-750). Put plainly: Biochemical EGFR kinase assay (Lance Ultra TR-FRET), double mutant del19/C797S. A digest of the protocol:
as §1
On the technique in general: In TR-FRET formats the signal depends on donor and acceptor labels being close together.

The target in a further test is EGFR L858R/T790M/C797S (Homo sapiens, UniProt P00533, C797S/L858R/T790M). As to the kind of experiment: Biochemical EGFR kinase assay (Lance Ultra TR-FRET), triple mutant L858R/T790M/C797S. A digest of the protocol: as §1
Sequence of EGFR L858R/T790M/C797S (P00533 25-1210 T790M/C797S/L858R): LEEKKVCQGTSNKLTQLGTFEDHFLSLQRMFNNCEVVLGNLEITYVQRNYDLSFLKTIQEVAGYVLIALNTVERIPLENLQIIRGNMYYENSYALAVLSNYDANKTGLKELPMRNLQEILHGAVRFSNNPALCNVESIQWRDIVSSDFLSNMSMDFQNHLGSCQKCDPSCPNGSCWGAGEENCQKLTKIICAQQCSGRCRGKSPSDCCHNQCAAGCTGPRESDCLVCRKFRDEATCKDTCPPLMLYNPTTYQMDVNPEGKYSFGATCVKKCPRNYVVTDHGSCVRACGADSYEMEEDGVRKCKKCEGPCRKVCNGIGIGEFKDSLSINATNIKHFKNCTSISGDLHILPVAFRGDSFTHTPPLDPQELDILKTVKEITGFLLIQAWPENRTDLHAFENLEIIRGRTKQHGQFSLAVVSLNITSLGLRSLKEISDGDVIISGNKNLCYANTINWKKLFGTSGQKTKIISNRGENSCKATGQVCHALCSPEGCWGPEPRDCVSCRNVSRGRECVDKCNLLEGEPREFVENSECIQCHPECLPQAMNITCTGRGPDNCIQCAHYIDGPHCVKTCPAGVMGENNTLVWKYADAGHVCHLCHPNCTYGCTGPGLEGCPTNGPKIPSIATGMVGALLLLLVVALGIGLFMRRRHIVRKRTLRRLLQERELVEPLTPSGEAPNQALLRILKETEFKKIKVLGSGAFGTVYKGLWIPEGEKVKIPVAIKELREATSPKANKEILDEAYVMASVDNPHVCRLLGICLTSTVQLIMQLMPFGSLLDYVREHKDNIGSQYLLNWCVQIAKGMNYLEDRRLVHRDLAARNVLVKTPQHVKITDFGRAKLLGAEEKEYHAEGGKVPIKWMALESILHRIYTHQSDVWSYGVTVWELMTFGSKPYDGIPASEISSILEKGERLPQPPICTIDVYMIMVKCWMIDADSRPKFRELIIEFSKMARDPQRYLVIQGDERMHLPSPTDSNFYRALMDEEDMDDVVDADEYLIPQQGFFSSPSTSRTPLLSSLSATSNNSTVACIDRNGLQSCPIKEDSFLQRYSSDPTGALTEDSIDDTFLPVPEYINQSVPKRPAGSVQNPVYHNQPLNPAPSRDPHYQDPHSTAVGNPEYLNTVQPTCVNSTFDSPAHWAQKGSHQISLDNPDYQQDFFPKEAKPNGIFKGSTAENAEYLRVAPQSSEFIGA
A further test has as its target EGFR wildtype (WT) (Homo sapiens, UniProt P00533). As to the kind of experiment: Biochemical EGFR kinase assay (Lance Ultra TR-FRET), wildtype. The method in brief:
as §1

The next test deals with EGFR L858R/C797S (Homo sapiens, UniProt P00533, C797S/L858R). As to the kind of experiment: Biochemical EGFR kinase assay (Lance Ultra TR-FRET), double mutant L858R/C797S. A digest of the protocol: as §1
Where [1] appears, read: IC50 del19/T790M/C797S (nM) 100 μM ATP, 100 μM ATP.
Setting [2] is: Km ATP, read-out: IC50 del19/T790M/C797S (nM) Km ATP.
Where [3] appears, read: IC50 del19/C797S (nM) 100 μM ATP, 100 μM ATP.
The mark [4] stands for this setting: Km ATP, read-out: IC50 del19/C797S (nM) Km ATP.
[5] abbreviates: IC50 L858R/T790M/C797S (nM) 100 μM ATP, 100 μM ATP.
Where [6] appears, read: Km ATP, read-out: IC50 L858R/T790M/C797S (nM) Km ATP.
Setting [7] is: IC50 WT (nM) 100 μM ATP, 100 μM ATP.
The mark [8] stands for this setting: Km ATP, read-out: IC50 WT (nM) Km ATP.
[9] abbreviates: IC50 L858R/C797S (nM) 100 μM ATP, 100 μM ATP.
Setting [10] is: Km ATP, read-out: IC50 L858R/C797S (nM) Km ATP.
The mark [11] stands for this setting: Km ATP, read-out: IC50 del19/T790M/C797S, Km ATP.
The mark [12] stands for this setting: Km ATP, read-out: IC50 del19/C797S, Km ATP.
Where [13] appears, read: Km ATP, read-out: IC50 L858R/T790M/C797S, Km ATP.
The mark [14] stands for this setting: Km ATP, read-out: IC50 WT, Km ATP.
Setting [15] is: Km ATP, read-out: IC50 L858R/C797S, Km ATP.

Sequence of EGFR del19/T790M/C797S (P00533 with tags, fused parts or gaps DEL746-750/T790M/C797S): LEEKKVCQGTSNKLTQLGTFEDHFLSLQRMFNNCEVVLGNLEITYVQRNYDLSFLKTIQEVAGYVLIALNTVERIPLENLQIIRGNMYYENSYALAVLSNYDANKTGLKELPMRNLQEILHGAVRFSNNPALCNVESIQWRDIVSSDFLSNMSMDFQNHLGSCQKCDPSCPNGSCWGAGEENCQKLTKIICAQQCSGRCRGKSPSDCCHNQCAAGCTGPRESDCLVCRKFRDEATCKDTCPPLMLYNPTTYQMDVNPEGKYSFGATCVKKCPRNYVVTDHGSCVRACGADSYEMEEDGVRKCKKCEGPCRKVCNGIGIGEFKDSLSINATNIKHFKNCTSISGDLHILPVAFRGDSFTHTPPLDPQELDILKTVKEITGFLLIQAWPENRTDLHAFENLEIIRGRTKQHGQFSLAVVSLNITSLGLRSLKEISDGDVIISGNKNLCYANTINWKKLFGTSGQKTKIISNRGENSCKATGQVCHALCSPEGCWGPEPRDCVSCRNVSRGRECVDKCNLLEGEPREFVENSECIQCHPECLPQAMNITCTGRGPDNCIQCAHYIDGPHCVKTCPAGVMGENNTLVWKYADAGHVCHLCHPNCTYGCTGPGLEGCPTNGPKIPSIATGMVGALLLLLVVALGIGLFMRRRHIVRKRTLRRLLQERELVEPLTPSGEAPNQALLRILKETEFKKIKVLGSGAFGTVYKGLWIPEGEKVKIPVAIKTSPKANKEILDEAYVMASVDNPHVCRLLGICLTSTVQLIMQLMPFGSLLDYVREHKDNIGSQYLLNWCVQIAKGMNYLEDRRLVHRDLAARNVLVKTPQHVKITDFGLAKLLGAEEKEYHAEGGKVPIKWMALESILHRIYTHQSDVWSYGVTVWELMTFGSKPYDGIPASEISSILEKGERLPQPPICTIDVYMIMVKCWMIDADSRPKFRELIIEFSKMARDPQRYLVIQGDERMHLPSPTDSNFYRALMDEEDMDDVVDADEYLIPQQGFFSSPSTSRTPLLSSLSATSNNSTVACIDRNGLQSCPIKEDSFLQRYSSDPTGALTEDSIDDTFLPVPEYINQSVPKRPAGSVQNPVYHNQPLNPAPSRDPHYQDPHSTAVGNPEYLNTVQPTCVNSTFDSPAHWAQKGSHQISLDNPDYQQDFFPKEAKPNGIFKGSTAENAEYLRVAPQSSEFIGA
Sequence of EGFR wildtype (WT) (P00533 25-1210): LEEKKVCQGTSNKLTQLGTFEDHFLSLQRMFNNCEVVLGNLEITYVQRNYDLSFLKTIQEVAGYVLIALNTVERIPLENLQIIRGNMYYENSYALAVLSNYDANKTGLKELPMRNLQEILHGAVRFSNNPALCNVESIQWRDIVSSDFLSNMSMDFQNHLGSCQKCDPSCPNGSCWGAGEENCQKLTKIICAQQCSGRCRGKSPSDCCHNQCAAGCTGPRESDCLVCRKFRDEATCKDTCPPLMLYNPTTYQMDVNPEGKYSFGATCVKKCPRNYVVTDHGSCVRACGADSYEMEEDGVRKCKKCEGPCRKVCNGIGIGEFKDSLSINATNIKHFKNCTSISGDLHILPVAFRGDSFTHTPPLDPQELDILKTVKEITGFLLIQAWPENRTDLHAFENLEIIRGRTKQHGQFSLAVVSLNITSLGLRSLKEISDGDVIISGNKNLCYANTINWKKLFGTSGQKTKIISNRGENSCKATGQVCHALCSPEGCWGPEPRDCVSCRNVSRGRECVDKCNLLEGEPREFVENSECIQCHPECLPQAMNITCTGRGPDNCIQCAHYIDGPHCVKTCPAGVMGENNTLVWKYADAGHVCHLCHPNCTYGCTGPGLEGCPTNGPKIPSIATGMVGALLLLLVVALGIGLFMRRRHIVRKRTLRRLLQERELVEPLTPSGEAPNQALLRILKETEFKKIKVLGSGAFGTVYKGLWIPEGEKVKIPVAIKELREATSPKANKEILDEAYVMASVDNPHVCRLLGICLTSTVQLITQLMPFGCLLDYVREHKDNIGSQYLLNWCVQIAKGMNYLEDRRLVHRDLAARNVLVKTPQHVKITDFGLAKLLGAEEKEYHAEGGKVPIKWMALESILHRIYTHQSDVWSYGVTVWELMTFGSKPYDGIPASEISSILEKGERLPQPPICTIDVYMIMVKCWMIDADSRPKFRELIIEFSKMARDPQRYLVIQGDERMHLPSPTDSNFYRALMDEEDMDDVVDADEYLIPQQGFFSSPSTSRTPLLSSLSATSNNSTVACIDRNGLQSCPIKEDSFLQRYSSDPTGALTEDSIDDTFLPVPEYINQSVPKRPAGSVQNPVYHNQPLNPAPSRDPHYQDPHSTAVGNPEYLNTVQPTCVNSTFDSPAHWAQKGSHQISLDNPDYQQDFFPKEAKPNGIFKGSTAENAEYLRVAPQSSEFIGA
Sequence of EGFR del19/C797S (P00533 with tags, fused parts or gaps DEL746-750/C797S): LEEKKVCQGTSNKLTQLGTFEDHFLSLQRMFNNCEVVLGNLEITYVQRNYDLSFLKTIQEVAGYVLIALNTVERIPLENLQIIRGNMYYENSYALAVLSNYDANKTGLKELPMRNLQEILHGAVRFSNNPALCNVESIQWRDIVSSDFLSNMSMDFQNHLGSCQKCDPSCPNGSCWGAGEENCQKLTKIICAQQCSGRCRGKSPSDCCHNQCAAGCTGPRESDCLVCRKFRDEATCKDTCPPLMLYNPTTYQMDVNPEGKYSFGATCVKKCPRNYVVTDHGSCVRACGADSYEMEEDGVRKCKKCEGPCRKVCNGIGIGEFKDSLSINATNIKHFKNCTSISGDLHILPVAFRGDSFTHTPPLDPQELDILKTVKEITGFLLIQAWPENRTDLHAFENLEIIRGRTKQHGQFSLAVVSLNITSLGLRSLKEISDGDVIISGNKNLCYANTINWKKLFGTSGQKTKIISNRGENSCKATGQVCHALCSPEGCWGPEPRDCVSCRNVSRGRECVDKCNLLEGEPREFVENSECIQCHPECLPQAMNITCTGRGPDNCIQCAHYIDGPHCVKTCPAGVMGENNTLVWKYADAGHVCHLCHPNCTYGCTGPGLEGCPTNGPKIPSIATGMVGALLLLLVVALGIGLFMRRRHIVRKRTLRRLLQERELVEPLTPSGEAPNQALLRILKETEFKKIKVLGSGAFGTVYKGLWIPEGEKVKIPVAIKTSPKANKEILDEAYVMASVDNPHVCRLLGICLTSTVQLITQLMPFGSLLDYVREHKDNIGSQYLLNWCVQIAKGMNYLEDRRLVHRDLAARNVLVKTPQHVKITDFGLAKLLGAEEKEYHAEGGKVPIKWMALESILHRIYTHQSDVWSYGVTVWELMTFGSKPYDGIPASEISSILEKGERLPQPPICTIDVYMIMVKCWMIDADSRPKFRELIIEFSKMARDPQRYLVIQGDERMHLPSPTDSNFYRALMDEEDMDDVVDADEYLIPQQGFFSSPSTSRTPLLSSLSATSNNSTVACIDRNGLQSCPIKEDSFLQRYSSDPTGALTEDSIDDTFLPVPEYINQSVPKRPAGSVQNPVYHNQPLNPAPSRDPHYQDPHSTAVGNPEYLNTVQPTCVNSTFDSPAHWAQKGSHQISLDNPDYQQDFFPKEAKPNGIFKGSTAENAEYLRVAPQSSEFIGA

With `O=S(=O)(C1CC1)n1cc(-c2nccc(Nc3cc(NC[C@H]4C[C@@H](O)C4)c(-c4ccn(C(F)F)n4)cn3)n2)cn1` [Example 35, (1s,3s)-3-(((2-((2-(1-(Cyclopropylsulfonyl)-1H-pyrazol-4-yl)pyrimidin-4-yl)amino)-5-(1-(difluoromethyl)-1H-pyrazol-3-yl)pyridin-4-yl)amino)methyl)cyclobutan-1-ol], the IC50 is 0.3 nM on EGFR del19/T790M/C797S (setting [1]); 0.4 nM at EGFR del19/T790M/C797S (setting [2]); 5.4 nM at EGFR del19/C797S (setting [3]); 5.2 nM on EGFR del19/C797S (setting [4]); 0.9 nM against EGFR L858R/T790M/C797S (setting [5]); 0.2 nM at EGFR L858R/T790M/C797S (setting [6]). The IC50 against EGFR wildtype (WT) (setting [7]) is more than 10000 nM; on EGFR wildtype (WT) (setting [8]), 32.9 nM; against EGFR L858R/C797S (setting [9]), 57.6 nM; on EGFR L858R/C797S (setting [10]), 6.5 nM.
For the compound `CN(C)S(=O)(=O)n1cc(-c2nccc(Nc3cc(N[C@H]4CC[C@@](C)(O)CC4)c(-c4ccn(C(F)F)n4)cn3)n2)cn1` [Example 317, 4-(4-((5-(1-(Difluoromethyl)-1H-pyrazol-3-yl)-4-(((1s,4s)-4-hydroxy-4-methylcyclohexyl)amino)pyridin-2-yl)amino)pyrimidin-2-yl)-N,N-dimethyl-1H-pyrazole-1-sulfonamide], the IC50 against EGFR del19/T790M/C797S (setting [1]) was found to be 0.3 nM; at EGFR del19/T790M/C797S (setting [2]), 0.5 nM; against EGFR del19/C797S (setting [3]), 16.8 nM; at EGFR del19/C797S (setting [4]), 5.5 nM; against EGFR L858R/T790M/C797S (setting [5]), 0.2 nM; at EGFR L858R/T790M/C797S (setting [6]), 0.1 nM. In addition, the IC50 was more than 10000 nM on EGFR wildtype (WT) (setting [7]), 12.1 nM at EGFR wildtype (WT) (setting [8]), 53.6 nM against EGFR L858R/C797S (setting [9]) and 2.2 nM at EGFR L858R/C797S (setting [10]).
For `O=S(=O)(C1CC1)n1cc(-c2nccc(Nc3cc(NC4CCC(NCCO)CC4)c(-c4csc(C(F)(F)F)n4)cn3)n2)cn1` (stereo not drawn) [Example 97, 2-((4-((2-((2-(1-(Cyclopropylsulfonyl)-1H-pyrazol-4-yl)pyrimidin-4-yl)amino)-5-(2-(trifluoromethyl)thiazol-4-yl)pyridin-4-yl)amino)cyclohexyl)amino)ethan-1-ol], the IC50 was 0.7 nM against EGFR del19/T790M/C797S (setting [1]); 18 nM on EGFR del19/C797S (setting [3]); 3.2 nM against EGFR L858R/T790M/C797S (setting [5]); more than 10000 nM on EGFR wildtype (WT) (setting [7]); 160 nM at EGFR L858R/C797S (setting [9]).
As to `Cn1nc(-c2cnc(Nc3ccnc(-c4cnn(S(=O)(=O)C5CC5)c4)c3)nc2N[C@H]2CC[C@@H](F)CC2)cc1C(F)(F)F` [Example 371, N^2-(2-(1-(Cyclopropylsulfonyl)-1H-pyrazol-4-yl)pyridin-4-yl)-N^4-((1s,4s)-4-fluorocyclohexyl)-5-(1-methyl-5-(trifluoromethyl)-1H-pyrazol-3-yl)pyrimidine-2,4-diamine], the IC50 was 0.9 nM at EGFR del19/T790M/C797S (setting [11]); 38.9 nM on EGFR del19/C797S (setting [12]); 1.8 nM on EGFR L858R/T790M/C797S (setting [13]); 1980 nM at EGFR wildtype (WT) (setting [14]); 91 nM on EGFR L858R/C797S (setting [15]).
Turning to `CC(C)Nc1cc(Nc2ccnc(-c3cnn(S(=O)(=O)C4CC4)c3)n2)ncc1-c1csc(C(C)(C)O)n1` [Example 92, 2-(4-(6-((2-(1-(Cyclopropylsulfonyl)-1H-pyrazol-4-yl)pyrimidin-4-yl)amino)-4-(isopropylamino)pyridin-3-yl)thiazol-2-yl)propan-2-ol], the IC50 on EGFR del19/T790M/C797S (setting [1]) was 2.6 nM; against EGFR del19/C797S (setting [3]), 10 nM; at EGFR L858R/T790M/C797S (setting [5]), 7.7 nM; at EGFR wildtype (WT) (setting [7]) it was more than 10000 nM; against EGFR L858R/C797S (setting [9]), 103 nM.
Regarding `Cn1nc(-c2cnc(Nc3ccnc(-c4cnn(S(=O)(=O)C5CC5)c4)n3)cc2N[C@H]2CCC[C@H](CO)C2)cc1C(F)(F)F` [Example 260, ((1S,3S)-3-((2-((2-(1-(Cyclopropylsulfonyl)-1H-pyrazol-4-yl)pyrimidin-4-yl)amino)-5-(1-methyl-5-(trifluoromethyl)-1H-pyrazol-3-yl)pyridin-4-yl)amino)cyclohexyl)methanol], the IC50 came to 9.8 nM against EGFR del19/T790M/C797S (setting [1]); 8.6 nM at EGFR del19/T790M/C797S (setting [2]); 8.7 nM at EGFR del19/C797S (setting [3]); 5 nM on EGFR del19/C797S (setting [4]); 4.3 nM against EGFR L858R/T790M/C797S (setting [5]); 3.8 nM at EGFR L858R/T790M/C797S (setting [6]). The IC50 against EGFR wildtype (WT) (setting [7]) was determined as 5230 nM; on EGFR wildtype (WT) (setting [8]), 27.1 nM; on EGFR L858R/C797S (setting [9]), 59.9 nM; on EGFR L858R/C797S (setting [10]), 2.7 nM.
In the case of `Cn1ccc(-c2cnc(Nc3ccnc(-c4cnn(S(=O)(=O)C5CC5)c4)n3)cc2N[C@H]2CC[C@@H](N(C)C)CC2)n1` [Example 124, N^2-(2-(1-(Cyclopropylsulfonyl)-1H-pyrazol-4-yl)pyrimidin-4-yl)-N^4-((1s,4s)-4-(dimethylamino)cyclohexyl)-5-(1-methyl-1H-pyrazol-3-yl)pyridine-2,4-diamine], the IC50 at EGFR del19/T790M/C797S (setting [1]) came out at 0.2 nM; on EGFR del19/T790M/C797S (setting [2]) it was 0.1 nM; against EGFR del19/C797S (setting [3]), 0.6 nM; on EGFR del19/C797S (setting [4]) it was 0.4 nM; at EGFR L858R/T790M/C797S (setting [5]), 0.1 nM; at EGFR L858R/T790M/C797S (setting [6]) it was 0.1 nM. The IC50 on EGFR wildtype (WT) (setting [7]) amounted to 801 nM; on EGFR wildtype (WT) (setting [8]), 1.1 nM; against EGFR L858R/C797S (setting [9]) it was 9.6 nM; on EGFR L858R/C797S (setting [10]) it was 0.5 nM.
Consider `O=S(=O)(C1CC1)n1cc(-c2nccc(Nc3cc(NC[C@H]4CC[C@H](NCC(F)F)CC4)c(-c4ccn(C(F)F)n4)cn3)n2)cn1` [Example 130, N^2-(2-(1-(Cyclopropylsulfonyl)-1H-pyrazol-4-yl)pyrimidin-4-yl)-N^4-(((1r,4r)-4-((2,2-difluoroethyl)amino)cyclohexyl)methyl)-5-(1-(difluoromethyl)-1H-pyrazol-3-yl)pyridine-2,4-diamine], for which the IC50 at EGFR del19/T790M/C797S (read-out: IC50 del19/T790M/C797S (nM) 100 μM ATP, 100 μM ATP) was 2.1 nM; on EGFR del19/C797S (read-out: IC50 del19/C797S (nM) 100 μM ATP, 100 μM ATP), 6.3 nM; at EGFR L858R/T790M/C797S (read-out: IC50 L858R/T790M/C797S (nM) 100 μM ATP, 100 μM ATP), 2 nM; at EGFR wildtype (WT) (read-out: IC50 WT (nM) 100 μM ATP, 100 μM ATP) it was more than 10000 nM; on EGFR L858R/C797S (read-out: IC50 L858R/C797S (nM) 100 μM ATP, 100 μM ATP) it was 96.5 nM.
On to `C[C@]1(O)CC[C@@H](Nc2cc(Nc3ccnc(-c4cnn(CC(F)F)c4)n3)ncc2-c2ccn(CC(F)F)n2)CC1` [Example 343, (1s,4s)-4-((5-(1-(2,2-Difluoroethyl)-1H-pyrazol-3-yl)-2-((2-(1-(2,2-difluoroethyl)-1H-pyrazol-4-yl)pyrimidin-4-yl)amino)pyridin-4-yl)amino)-1-methylcyclohexan-1-ol], for which the IC50 on EGFR del19/T790M/C797S (setting [11]) was 0.1 nM; at EGFR del19/C797S (setting [12]) it was 4.7 nM; on EGFR L858R/T790M/C797S (setting [13]) it was 0.2 nM; at EGFR wildtype (WT) (setting [14]), 35.3 nM; at EGFR L858R/C797S (setting [15]), 0.3 nM.
In the case of `Cc1cc(-c2cnc(Nc3ccnc(-c4cnn(S(=O)(=O)C5CC5)c4)n3)cc2N[C@H]2CC[C@@H](CO)CC2)nn1C` [Example 280, ((1s,4s)-4-((2-((2-(1-(Cyclopropylsulfonyl)-1H-pyrazol-4-yl)pyrimidin-4-yl)amino)-5-(1,5-dimethyl-1H-pyrazol-3-yl)pyridin-4-yl)amino)cyclohexyl)methanol], the IC50 on EGFR del19/T790M/C797S (setting [1]) came to 1 nM; on EGFR del19/T790M/C797S (setting [2]) it was 0.8 nM; on EGFR del19/C797S (setting [3]) it was 0.7 nM; at EGFR del19/C797S (setting [4]) it was 0.2 nM; against EGFR L858R/T790M/C797S (setting [5]), 0.7 nM; at EGFR L858R/T790M/C797S (setting [6]), 1 nM. Moreover, the IC50 against EGFR wildtype (WT) (setting [7]) came out at 51.9 nM; on EGFR wildtype (WT) (setting [8]), 0.4 nM; against EGFR L858R/C797S (setting [9]) it was 3.8 nM; on EGFR L858R/C797S (setting [10]) it was 0.3 nM.

Values taken from patent US12258327B2, “5-membered heteroaryl-containing aminopyridine compounds as EGFR inhibitors” (YUHAN CORPORATION, priority 2021, dated 2025).
